According to patent publication US11161845B2, “Pyrrolopyridine-aniline compounds for treatment of dermal disorders” (Nflection Therapeutics, Inc., priority 2017, dated 2021):

Legend:
C57BL/6J mice = experiment: In vivo mouse model, skin and systemic toxicity of topical application (survival); conditions: for Survival Rates: twice daily 5 days per week, 10% BSA
Text: This study was designed to assess the skin toxicity and gross systemic toxicity of twice daily topical administration of a compound disclosed herein, as well as to evaluate the effect of metabolic lability on systemic toxicity.
Study Objective: The primary objective of this study was to characterize the skin and systemic toxicity of twice daily topical application of a compound disclosed herein, applied for 25 days in mice. Secondary objectives included determination of the 25-day skin and plasma compound levels of formulations containing three dosages of compound of Ex. 2 after application to 10% body surface area (BSA) murine skin; assessment of gross systemic toxicity from the application of compound of Ex. 2 after twice daily application to 10% BSA murine skin for 25 days; and determination of the correlation of skin and plasma compound levels with associated toxicity.
Mice: 8 week old male C57BL/6J mice (Jackson Laboratories) were shaved prior to start of study and weekly.
Compound application: Compounds were dissolved in a 50% DMSO/50% propyelene glycol vehicle. 0.125 mL of the following compounds were applied to the shaved dorsal back of mice (10% BSA) twice daily for 5 days per week for a total of 24 days. The second dose was applied 8 hours after first morning dose. All mice were shaved once per week at application site.
Oral trametinib was dissolved in 0.5% hydroxypropyl methylcellulose (Sigma-Aldrich) and 0.2% Tween-80 (Sigma-Aldrich) and administered by oral gavage (0.2 mL bolus or 10 mg/kg) once daily 5 days per week. These mice were also shaved weekly.
Weekly (Weeks 0-4): body weight measurements weekly, starting week 0 until experiment end; photographs of dorsal back and face of each mouse weekly, starting week 0 until experiment end; skin; and gross stool analysis assessed weekly for heme color, starting week 0 until experiment end.
The study planned for the mice to be sacrificed at Day 25.
Kaplan Meier curves were analyzed to determine progression to skin toxicity for each arm as compared with vehicle. T-test were used to compare compound levels at each dosage. Ki-67+ cells and p-ERK expression were also assessed on a cellular level via immunostaining. Western blots informed semi-quantitative changes in p-ERK expression.

MDCK-MDR1 cells = experiment: in vitro; conditions: dog, MDCK-MDR1, 1 h, 5 μM
Experimental: (§1) MDCK-MDR1 is a stable-transfected cell line originating from MDCK cells, with over-expression of human MDR1 gene. The cell line is widely used for the identification and characterization of P-gp substrates and inhibitors.
(§2) MDCK-MDR1 cells were plated into 96-well Millipore Millicell-96 plates at 7,500 cells/75 μL/well and incubated for three days at 37° C. with 5% CO2. Cells were washed with Hank's Balanced Salt Solution (HBSS) with 5 mM HEPES for 30 minutes before starting the experiment. Test compound solutions were prepared by diluting DMSO stock into HBSS buffer, resulting in a final DMSO concentration of 0.1%. Prior to the experiment, cell monolayer integrity was verified by […] electrical resistance (TEER). Transport experiment was initiated by adding test compounds to the apical (75 μL) or basal (250 μL) side. Transport plates were incubated at 37° C. in a humidified incubator with 5% CO2. Samples were taken from the donor and acceptor compartments after one hour and analyzed by liquid chromatography with tandem mass spectrometry (LC/MS/MS).
(§3) Digoxin was used as reference control.
(§4) Apparent permeability (Papp) values were calculated using the following equation: Papp=(dQ/dt)/A/Co; where dQ/dt is the initial rate of amount of test compound transported across cell monolayer, A is the surface area of the filter membrane, and Co is the initial concentration of the test compound, calculated for each direction using a 4-point calibration curve by LC/MS/MS.
(§5) Net flux ratio between the two directional transports was calculated by the following equation: Ratio=Papp, B-A/Papp, A-B; where Papp, B-A and Papp, A-B represent the apparent permeability of test compound from the basal-to-apical and apical-to-basal side of the cellular monolayer, respectively.
(§6) Recovery was calculated based on the compound concentration at the end of the experiment, compared to that at the beginning of the experiment, adjusted for volumes.
(§7) A net flux ratio greater than two was considered a positive result for substrate determination. […] If the addition of a known P-gp inhibitor to the experiment reduces the net flux ratio by a significant amount (more than 50% reduction or reduces the ratio to close to unity), it is likely that the compound tested is a P-gp substrate.

P-gp (human MDR1) = experiment: in vitro; conditions: dog; for Papp A→B at 1 h, 5 μM / Papp B→A at 1 h, 5 μM: MDCK-MDR1, Papp
Experimental: as §1, §2, §3, §4, §5, §6, §7

SMILES: Cn1c(Nc2ccc(I)cc2F)c(C(=O)NOCCO)c2cccnc21 [Example 2, 2-((2-Fluoro-4-iodophenyl)amino)—N-(2-hydroxyethoxy)-1-methyl-1H-pyrrolo[2,3-b]pyridine-3-carboxamide]
- Survival Rates (C57BL/6J mice; topical 0.1%, Day 0): 100%
- Survival Rates (C57BL/6J mice; topical 0.1%, Day 3): 100%
- Survival Rates (C57BL/6J mice; topical 0.1%, Day 6): 100%
- Survival Rates (C57BL/6J mice; topical 0.1%, Day 9): 100%
- Survival Rates (C57BL/6J mice; topical 0.1%, Day 12): 100%
- Survival Rates (C57BL/6J mice; topical 0.1%, Day 15): 100%
- Survival Rates (C57BL/6J mice; topical 0.1%, Day 18): 100%
- Survival Rates (C57BL/6J mice; topical 0.1%, Day 21): 100%
- Survival Rates (C57BL/6J mice; topical 0.1%, Day 24): 100%
- Survival Rates (C57BL/6J mice; topical 0.1%, Day 25): 100%
- Survival Rates (C57BL/6J mice; topical 0.5%, Day 0): 100%
- Survival Rates (C57BL/6J mice; topical 0.5%, Day 3): 100%
- Survival Rates (C57BL/6J mice; topical 0.5%, Day 6): 100%
- Survival Rates (C57BL/6J mice; topical 0.5%, Day 9): 100%
- Survival Rates (C57BL/6J mice; topical 0.5%, Day 12): 100%
- Survival Rates (C57BL/6J mice; topical 0.5%, Day 15): 100%
- Survival Rates (C57BL/6J mice; topical 0.5%, Day 18): 100%
- Survival Rates (C57BL/6J mice; topical 0.5%, Day 21): 100%
- Survival Rates (C57BL/6J mice; topical 0.5%, Day 24): 100%
- Survival Rates (C57BL/6J mice; topical 0.5%, Day 25): 100%
- Survival Rates (C57BL/6J mice; topical 1%, Day 0): 100%
- Survival Rates (C57BL/6J mice; topical 1%, Day 3): 100%
- Survival Rates (C57BL/6J mice; topical 1%, Day 6): 100%
- Survival Rates (C57BL/6J mice; topical 1%, Day 9): 100%
- Survival Rates (C57BL/6J mice; topical 1%, Day 12): 100%
- Survival Rates (C57BL/6J mice; topical 1%, Day 15): 100%
- Survival Rates (C57BL/6J mice; topical 1%, Day 18): 100%
- Survival Rates (C57BL/6J mice; topical 1%, Day 21): 100%
- Survival Rates (C57BL/6J mice; topical 1%, Day 24): 100%
- Survival Rates (C57BL/6J mice; topical 1%, Day 25): 100%
- systemic toxicity compared to topical Trametinib (C57BL/6J mice; topical application): less systemic toxicity
- survival (C57BL/6J mice; topically applied 0.1%, 0.5%, and 1% formulations, 25 days): All mice survived
- Papp, A-B Value (MDCK-MDR1 cells): 47.8 ×10⁻⁶ cm/s
- Papp, B-A Value (MDCK-MDR1 cells): 41.3 ×10⁻⁶ cm/s
- Recover Rate (MDCK-MDR1 cells): 92%
- efflux ratio at 1 h, 5 μM (P-gp (human MDR1); MDCK-MDR1): 0.9
- Papp A→B at 1 h, 5 μM (P-gp (human MDR1); A-B Mean): 49.1 ×10⁻⁶ cm/s
- Papp A→B at 1 h, 5 μM (P-gp (human MDR1); A-B Value): 50.5 ×10⁻⁶ cm/s
- Papp B→A at 1 h, 5 μM (P-gp (human MDR1); B-A Mean): 41.8 ×10⁻⁶ cm/s
- Papp B→A at 1 h, 5 μM (P-gp (human MDR1); B-A Value): 42.3 ×10⁻⁶ cm/s
